Measurements reported in patent publication US10940139B2, “Compounds that interact with the Ras superfamily for the treatment of cancers, inflammatory diseases, rasopathies, and fibrotic disease” (Shy Therapeutics LLC, priority 2017, dated 2021).
Read-outs that look alike come from different tables or passages of the source.

Key:
Assay in all cases: Ras GTP binding domain inhibition assay (labeled GTP)
[1] = target: KRas Q61H mutant (Homo sapiens (Human), UniProt P01116, Q61H); details: 20 μM compound
Chain of KRas Q61H mutant (P01116-2 other isoform, or with tags, fused parts or gaps Q61H): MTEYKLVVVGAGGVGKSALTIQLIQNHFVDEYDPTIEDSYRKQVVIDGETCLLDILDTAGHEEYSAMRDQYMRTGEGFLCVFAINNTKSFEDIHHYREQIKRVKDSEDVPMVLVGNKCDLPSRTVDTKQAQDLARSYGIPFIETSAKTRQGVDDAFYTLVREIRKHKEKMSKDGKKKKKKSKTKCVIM
Method in brief: (§1)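 His-tagged KRas protein (3-10 μg/ml) was captured overnight at 4° C on nickel-coated wells in 50 mM Tris pH 7.5, 1 mM MgCl2, 1 mM DTT. Bound labeled GTP was read by fluorescence after washing.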

[2] = target: KRas G12D/Q61H double mutant (Homo sapiens (Human), UniProt P01116, G12D/Q61H); details: for inhibition at 20 µM: 20 μM compound; for IC50: serial dilution, read-out: KRas G12D Q61H (classes E-H, IC50)
Chain of KRas G12D/Q61H double mutant (P01116-2 other isoform, or with tags, fused parts or gaps G12D/Q61H): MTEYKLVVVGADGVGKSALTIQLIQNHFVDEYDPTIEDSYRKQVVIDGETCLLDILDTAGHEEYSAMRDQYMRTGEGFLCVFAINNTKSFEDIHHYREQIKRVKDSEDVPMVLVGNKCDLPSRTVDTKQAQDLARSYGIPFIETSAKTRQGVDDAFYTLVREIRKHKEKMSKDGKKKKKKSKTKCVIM
Method in brief: as §1

[3] = target: KRas wild type (Homo sapiens (Human), UniProt P01116); details: 20 μM compound
Chain of KRas wild type (P01116-2 other isoform, or with tags, fused parts or gaps): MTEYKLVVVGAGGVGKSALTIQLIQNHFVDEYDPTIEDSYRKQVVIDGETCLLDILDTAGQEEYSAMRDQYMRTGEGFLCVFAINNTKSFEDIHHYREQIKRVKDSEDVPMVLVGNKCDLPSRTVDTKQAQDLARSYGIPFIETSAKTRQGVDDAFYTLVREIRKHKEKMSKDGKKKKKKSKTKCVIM
Method in brief: as §1

[4] = target: KRas G12C mutant (Homo sapiens (Human), UniProt P01116, G12C); details: 20 μM compound
Chain of KRas G12C mutant (P01116-2 other isoform, or with tags, fused parts or gaps G12C): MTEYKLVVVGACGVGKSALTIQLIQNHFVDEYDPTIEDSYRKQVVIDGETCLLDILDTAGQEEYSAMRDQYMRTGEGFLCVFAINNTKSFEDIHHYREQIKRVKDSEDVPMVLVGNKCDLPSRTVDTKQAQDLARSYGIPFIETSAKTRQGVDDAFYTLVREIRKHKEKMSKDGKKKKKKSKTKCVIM
Method in brief: as §1

[5] = target: KRas G12C/Q61H double mutant (Homo sapiens (Human), UniProt P01116, G12C/Q61H); details: 20 μM compound
Chain of KRas G12C/Q61H double mutant (P01116-2 other isoform, or with tags, fused parts or gaps G12C/Q61H): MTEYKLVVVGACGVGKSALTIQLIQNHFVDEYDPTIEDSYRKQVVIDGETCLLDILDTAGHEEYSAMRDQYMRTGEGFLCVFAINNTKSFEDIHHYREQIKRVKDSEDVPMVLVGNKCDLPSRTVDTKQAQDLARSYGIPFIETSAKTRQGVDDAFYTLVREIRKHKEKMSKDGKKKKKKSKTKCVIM
Method in brief: as §1

[6] = target: KRas G12D mutant protein (Homo sapiens (Human), UniProt P01116, G12D); details: 20 μM compound
Chain of KRas G12D mutant protein (P01116-2 other isoform, or with tags, fused parts or gaps G12D): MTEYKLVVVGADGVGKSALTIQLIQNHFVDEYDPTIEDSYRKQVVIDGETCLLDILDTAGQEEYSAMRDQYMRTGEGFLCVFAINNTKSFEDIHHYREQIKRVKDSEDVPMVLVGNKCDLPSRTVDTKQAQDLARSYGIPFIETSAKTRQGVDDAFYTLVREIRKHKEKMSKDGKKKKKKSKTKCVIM

[7] = KRas Q61H, read-out: % Inhibition at 20 μM of K-Ras mutant and wild-type protein, KRas Q61H
[8] = KRas G12D/Q61H double mutant, read-out: % Inhibition at 20 μM of K-Ras mutant and wild-type protein, KRas G12D Q61H
[9] = KRas wild type, read-out: % Inhibition at 20 μM of K-Ras mutant and wild-type protein, KRas wild type
[10] = KRas G12C, read-out: % Inhibition at 20 μM of K-Ras mutant and wild-type protein, KRas G12C
[11] = KRas G12C/Q61H double mutant, read-out: % Inhibition at 20 μM of K-Ras mutant and wild-type protein, KRas G12C Q61H
[12] = KRas G12D, read-out: % Inhibition at 20 μM of K-Ras mutant and wild-type protein, KRas G12D
[13] = read-out: % Inhibition at 20 μM KRas Q61H
[14] = read-out: % Inhibition at 20 μM KRas G12D Q61H
[15] = read-out: % Inhibition at 20 μM KRas wild type
[16] = read-out: % Inhibition at 20 μM KRas G12C
[17] = read-out: % Inhibition at 20 μM KRas G12C Q61H
[18] = read-out: % Inhibition at 20 μM KRas G12D

inhibition at 20 µM [1, 7] [%]	inhibition at 20 µM [2, 8] [%]	inhibition at 20 µM [3, 9] [%]	inhibition at 20 µM [4, 10] [%]	inhibition at 20 µM [5, 11] [%]	inhibition at 20 µM [6, 12] [%]	SMILES	inhibition at 20 µM [1, 13] [%]	inhibition at 20 µM [2, 14] [%]	inhibition at 20 µM [3, 15] [%]	inhibition at 20 µM [4, 16] [%]	inhibition at 20 µM [5, 17] [%]	inhibition at 20 µM [6, 18] [%]	IC50 [2] [µM]
51 to 75	51 to 75	25 to 50	51 to 75	25 to 50	51 to 75	COc1nc(-c2ccccn2)nc2c1c(-c1ccccc1)nn2-c1ccccn1 [drawing 3540]	–	–	–	–	–	–	–
–	–	–	–	–	–	O=C(COCc1cccnc1)Nc1nc(-c2ccccn2)nc2sccc12 [drawing 2829]	76 to 100	51 to 75	51 to 75	51 to 75	76 to 100	51 to 75	–
–	–	–	–	–	–	Oc1nc(-c2ccccn2)nc2c(-c3ccc(OC(F)F)cc3F)csc12 [drawing 2876]	51 to 75	51 to 75	51 to 75	25 to 50	51 to 75	51 to 75	–
25 to 50	25 to 50	1 to 25	25 to 50	1 to 25	25 to 50	COc1nc(-c2cn(C)cn2)nc2sc(-c3ccncc3)c(-c3ccccc3)c12 [drawing 3531]	–	–	–	–	–	–	–
51 to 75	25 to 50	1 to 25	25 to 50	51 to 75	25 to 50	COc1ccc(COC[C@H]2O[C@@H](c3csc4c(=O)[nH]c(-c5ccccn5)nc34)[C@H](O)[C@@H]2O)cc1 [drawing 3533]	–	–	–	–	–	–	–
–	–	–	–	–	–	COc1cc(-c2csc3c(O)nc(-c4ccccn4)nc23)cnc1C(F)(F)F [drawing 2884]	51 to 75	51 to 75	51 to 75	51 to 75	51 to 75	51 to 75	–
51 to 75	51 to 75	25 to 50	51 to 75	51 to 75	51 to 75	Oc1nc(-c2ccccn2)nc2c(CC3CCNC3)csc12 (centres unmarked) [drawing 3526]	–	–	–	–	–	–	–
–	–	–	–	–	–	COCc1ccc(-c2csc3c(O)nc(-c4ccccn4)nc23)cc1F [drawing 2846]	51 to 75	51 to 75	25 to 50	51 to 75	51 to 75	51 to 75	–
–	–	–	–	–	–	Oc1nc(-c2ccccn2)nc2sc3c(c12)CCCNC3 [drawing 2852]	25 to 50	25 to 50	25 to 50	51 to 75	25 to 50	51 to 75	–
–	–	–	–	–	–	O=C(c1csc2c(O)nc(-c3ccccn3)nc12)N1CCNC(c2ccc(O)cc2)C1 (centres unmarked) [drawing 2808]	76 to 100	76 to 100	76 to 100	51 to 75	76 to 100	51 to 75	5 to 10
–	–	–	–	–	–	O=C(c1cc2nc(-c3ccccn3)nc(O)c2s1)N1CCN(c2ccccc2)CC1 [drawing 2841]	51 to 75	51 to 75	51 to 75	51 to 75	51 to 75	51 to 75	–
51 to 75	51 to 75	1 to 25	1 to 25	51 to 75	25 to 50	Cc1c(C(=O)O)sc2c(O)nc(-c3ccccn3)nc12 [drawing 3475]	–	–	–	–	–	–	–
–	–	–	–	–	–	Oc1nc(-c2ccccn2)nc2c(-c3ccccn3)csc12 [drawing 2896]	25 to 50	1 to 25	51 to 75	25 to 50	51 to 75	25 to 50	–
76 to 100	51 to 75	25 to 50	51 to 75	51 to 75	76 to 100	Oc1nc(-c2ccccn2)nc2c(-c3cc(CN4CCCC4)ccc3F)csc12 [drawing 3502]	–	–	–	–	–	–	–
–	–	–	–	–	–	COc1cccc(C2CN(C(=O)c3csc4c(O)nc(-c5ccccn5)nc34)CCN2)c1 (centres unmarked) [drawing 2773]	76 to 100	25 to 50	25 to 50	25 to 50	51 to 75	51 to 75	11 to 30
–	–	–	–	–	–	N#Cc1ccc(COCC(=O)Nc2nc(-c3ccccn3)nc3sccc23)cc1 [drawing 2799]	76 to 100	25 to 50	25 to 50	25 to 50	76 to 100	76 to 100	11 to 30
–	–	–	–	–	–	O=C(c1csc2c(O)nc(-c3ccccn3)nc12)N1CCNC(c2cn[nH]c2)C1 (centres unmarked) [drawing 2858]	76 to 100	51 to 75	25 to 50	25 to 50	51 to 75	25 to 50	–
–	–	–	–	–	–	Oc1nc(-c2ccccn2)nc2sccc12 [drawing 2704]	51 to 75	51 to 75	25 to 50	25 to 50	51 to 75	25 to 50	11 to 30
–	–	–	–	–	–	Oc1nc(-c2ccccn2)nc2c(-c3cccc(C(F)(F)F)c3)csc12 [drawing 2873]	51 to 75	25 to 50	25 to 50	25 to 50	25 to 50	51 to 75	–
–	–	–	–	–	–	Oc1nc(-c2ccccn2)nc2c(-c3ccsc3)csc12 [drawing 2875]	25 to 50	25 to 50	1 to 25	51 to 75	25 to 50	51 to 75	–
51 to 75	51 to 75	1 to 25	1 to 25	51 to 75	25 to 50	Cc1sc2c(O)nc(-c3ccccn3)nc2c1C(=O)N1CCN(Cc2cccc(O)c2)CC1 [drawing 3510]	–	–	–	–	–	–	–
–	–	–	–	–	–	Nc1nc(-c2ccccn2)nc2ccsc12 [drawing 2834]	51 to 75	25 to 50	1 to 25	25 to 50	25 to 50	1 to 25	–
76 to 100	76 to 100	51 to 75	51 to 75	76 to 100	76 to 100	CN(C)CCOc1cccc(-c2csc3c(O)nc(-c4ccccn4)nc23)c1 [drawing 3492]	–	–	–	–	–	–	–
–	–	–	–	–	–	Oc1nc(-c2ccccn2)nc2c(-c3ccccc3F)csc12 [drawing 2868]	51 to 75	51 to 75	51 to 75	25 to 50	51 to 75	51 to 75	–
76 to 100	51 to 75	1 to 25	1 to 25	51 to 75	51 to 75	Cc1sc2c(O)nc(-c3ccccn3)nc2c1-c1ccccc1Cl [drawing 3515]	–	–	–	–	–	–	–
–	–	–	–	–	–	Oc1nc(-c2ccccn2)nc2c(-c3cccc4c3OCO4)csc12 [drawing 2849]	51 to 75	51 to 75	25 to 50	25 to 50	25 to 50	25 to 50	–
–	–	–	–	–	–	CC(C)(O)c1ccc(-c2csc3c(O)nc(-c4ccccn4)nc23)c(F)c1 [drawing 2880]	51 to 75	51 to 75	51 to 75	51 to 75	51 to 75	51 to 75	–
–	–	–	–	–	–	Cn1nnc2ccc(-c3csc4c(O)nc(-c5ccccn5)nc34)cc21 [drawing 2861]	51 to 75	51 to 75	76 to 100	1 to 25	51 to 75	51 to 75	–
–	–	–	–	–	–	Oc1nc(-c2ccccn2)nc2c(-c3cc(F)cc(F)c3)csc12 [drawing 2900]	51 to 75	51 to 75	25 to 50	51 to 75	51 to 75	51 to 75	> 30

SMILES	inhibition at 20 µM [1, 7] [%]	inhibition at 20 µM [2, 8] [%]	inhibition at 20 µM [3, 9] [%]	inhibition at 20 µM [4, 10] [%]	inhibition at 20 µM [5, 11] [%]	inhibition at 20 µM [6, 12] [%]	inhibition at 20 µM [1, 13] [%]	inhibition at 20 µM [2, 14] [%]	inhibition at 20 µM [3, 15] [%]	inhibition at 20 µM [4, 16] [%]	inhibition at 20 µM [5, 17] [%]	inhibition at 20 µM [6, 18] [%]	IC50 [2] [µM]
CC(C)c1csc2c(O)nc(-c3ccccn3)nc12 [drawing 3487]	51 to 75	51 to 75	51 to 75	51 to 75	51 to 75	51 to 75	–	–	–	–	–	–	–
